{
  "source": "patent US20260272964A1",
  "about": "“PENTAGALLOYL GLUCOSE DERIVED FROM SCHINUS PLANTS AND METHODS OF USE” (Emory University, priority 2020, published 2026)",
  "key": {"Enterobacter cloacae": {"system": "Enterobacter cloacae", "experiment": "Growth inhibition of ESKAPE pathogens", "type": "cell-based", "description": "(§1) PGG was also tested against a panel of other ESKAPE pathogens: Enterococcus faecium, Staphylococcus aureus, Klebsiella pneumoniae, Pseudomonas aeruginosa, and Enterobacter cloacae."}, "Staphylococcus aureus": {"system": "Staphylococcus aureus", "experiment": "Growth inhibition of ESKAPE pathogens", "type": "cell-based", "conditions": "strain LAC", "description": "as §1"}, "Pseudomonas aeruginosa": {"system": "Pseudomonas aeruginosa", "experiment": "Growth inhibition of ESKAPE pathogens", "type": "cell-based", "description": "as §1"}, "Enterococcus faecium": {"system": "Enterococcus faecium", "experiment": "Growth inhibition of ESKAPE pathogens", "type": "cell-based", "description": "as §1"}, "Klebsiella pneumoniae": {"system": "Klebsiella pneumoniae", "experiment": "Growth inhibition of ESKAPE pathogens", "type": "cell-based", "description": "as §1"}, "Candida species": {"system": "Candida species", "experiment": "Growth inhibition of a panel of Candida strains", "type": "cell-based", "description": "The activity of PGG was tested for growth inhibition against two susceptible strains and 6 drug resistant strains from three Candida species (Table 2). […] The activity of PGG followed a dose-response curve against tested strains. Typically the strains tested had MICs less than 2 μg/mL. Candida glabrata (AR Bank #0335) yielded the highest MIC at 8 μg/mL."}, "[1]": {"system": "Immortalized human keratinocyte cells (HaCaTs)", "experiment": "Lactate dehydrogenase (LDH) cytotoxicity assay", "type": "cell-based", "conditions": "HaCaT IC50 over median IC50 for growth inhibition of A. baumannii", "source_text": "(§2) Immortalized human keratinocyte cells (HaCaTs) were used in a lactate dehydrogenase (LDH) assay to assess cytotoxicity by PGG and its parents."}, "[2]": {"experiment": "Lactate dehydrogenase (LDH) cytotoxicity assay", "type": "cell-based, human", "conditions": "human; HaCaT, LDH assay", "source_text": "as §2"}, "Acinetobacter baumannii": {"system": "Acinetobacter baumannii", "experiment": "Growth inhibition of Acinetobacter baumannii (CRAB and susceptible strains)", "type": "cell-based", "conditions": "for IC50 / MIC: Acinetobacter baumannii", "description": "A natural products library was screened for growth inhibition of CRAB. Lead extracts were then tested in serial dilution and nine extracts from seven species were chosen for further study based on activity. Extract 429, made from the leaves of Schinus terebinthifolia, underwent bioassay-guided fractionation for growth inhibition (FIG. 1).\nA library of botanical extracts generated from plants was screened for growth inhibition of CRAB. […] Bioassay-guided fractionation lead to the isolation of pentagalloyl glucose (PGG), a bioactive gallotannin. […] Topical applications of PGG, such as wound rinses and dressings, are contemplated. […]"}},
  "note": "Several values for one entry are separate records, joined by “and”; a condition that tells them apart may be missing. Equal entries are not always repeated. Where two headings read alike, the source gives them in different places.",
  "data": [
    {"smiles": "O=C(OC[C@H]1O[C@@H](OC(=O)c2cc(O)c(O)c(O)c2)[C@H](OC(=O)c2cc(O)c(O)c(O)c2)[C@@H](OC(=O)c2cc(O)c(O)c(O)c2)[C@@H]1OC(=O)c1cc(O)c(O)c(O)c1)c1cc(O)c(O)c(O)c1", "note": "[PGG, [(2R,3R,4S,5R,6S)-3,4,5,6-tetrakis[(3,4,5-trihydroxybenzoyl)oxy]oxan-2-yl]methyl 3,4,5-trihydroxybenzoate]", "values": [
      {"measurement": "MIC", "setting": "Enterobacter cloacae; read-out: PGG MIC", "value": "> 256", "unit": "µg/mL"},
      {"measurement": "IC50", "setting": "Enterobacter cloacae; strain AR Bank #0032, read-out: PGG IC50", "value": 64, "unit": "µg/mL"},
      {"measurement": "IC50", "setting": "Staphylococcus aureus; read-out: PGG IC50", "value": 16, "unit": "µg/mL"},
      {"measurement": "MIC", "setting": "Staphylococcus aureus; read-out: PGG MIC", "value": 64, "unit": "µg/mL"},
      {"measurement": "MIC", "setting": "Pseudomonas aeruginosa; P. aeruginosa, strain not given, read-out: MIC", "value": 16, "unit": "µg/mL"},
      {"measurement": "IC50", "setting": "Pseudomonas aeruginosa; strain AR Bank #0054, read-out: PGG IC50", "value": 8, "unit": "µg/mL"},
      {"measurement": "MIC", "setting": "Pseudomonas aeruginosa; strain AR Bank #0054, read-out: PGG MIC", "value": "> 64", "unit": "µg/mL"},
      {"measurement": "IC50", "setting": "Pseudomonas aeruginosa; strain AR Bank #0064, read-out: PGG IC50", "value": 4, "unit": "µg/mL"},
      {"measurement": "MIC", "setting": "Pseudomonas aeruginosa; strain AR Bank #0064, read-out: PGG MIC", "value": 16, "unit": "µg/mL"},
      {"measurement": "IC50", "setting": "Pseudomonas aeruginosa; strain AR Bank #0090, read-out: PGG IC50", "value": 4, "unit": "µg/mL"},
      {"measurement": "MIC", "setting": "Pseudomonas aeruginosa; strain AR Bank #0090, read-out: PGG MIC", "value": "> 64", "unit": "µg/mL"},
      {"measurement": "IC50", "setting": "Pseudomonas aeruginosa; strain AR Bank #0092, read-out: PGG IC50", "value": 4, "unit": "µg/mL"},
      {"measurement": "MIC", "setting": "Pseudomonas aeruginosa; strain AR Bank #0092, read-out: PGG MIC", "value": "> 64", "unit": "µg/mL"},
      {"measurement": "IC50", "setting": "Pseudomonas aeruginosa; strain AR Bank #0094, read-out: PGG IC50", "value": 8, "unit": "µg/mL"},
      {"measurement": "MIC", "setting": "Pseudomonas aeruginosa; strain AR Bank #0094, read-out: PGG MIC", "value": 64, "unit": "µg/mL"},
      {"measurement": "IC50", "setting": "Pseudomonas aeruginosa; strain AR Bank #0095, read-out: PGG IC50", "value": 8, "unit": "µg/mL"},
      {"measurement": "MIC", "setting": "Pseudomonas aeruginosa; strain AR Bank #0095, read-out: PGG MIC", "value": 64, "unit": "µg/mL"},
      {"measurement": "IC50", "setting": "Pseudomonas aeruginosa; strain AR Bank #0100, read-out: PGG IC50", "value": 8, "unit": "µg/mL"},
      {"measurement": "MIC", "setting": "Pseudomonas aeruginosa; strain AR Bank #0100, read-out: PGG MIC", "value": "> 64", "unit": "µg/mL"},
      {"measurement": "IC50", "setting": "Pseudomonas aeruginosa; strain AR Bank #0103, read-out: PGG IC50", "value": 4, "unit": "µg/mL"},
      {"measurement": "MIC", "setting": "Pseudomonas aeruginosa; strain AR Bank #0103, read-out: PGG MIC", "value": 64, "unit": "µg/mL"},
      {"measurement": "IC50", "setting": "Pseudomonas aeruginosa; strain AR Bank #0105, read-out: PGG IC50", "value": 32, "unit": "µg/mL"},
      {"measurement": "MIC", "setting": "Pseudomonas aeruginosa; strain AR Bank #0105, read-out: PGG MIC", "value": "> 64", "unit": "µg/mL"},
      {"measurement": "IC50", "setting": "Pseudomonas aeruginosa; strain AR Bank #0108, read-out: PGG IC50", "value": 8, "unit": "µg/mL"},
      {"measurement": "MIC", "setting": "Pseudomonas aeruginosa; strain AR Bank #0108, read-out: PGG MIC", "value": "> 64", "unit": "µg/mL"},
      {"measurement": "IC50", "setting": "Pseudomonas aeruginosa; strain AR Bank #0110, read-out: PGG IC50", "value": 4, "unit": "µg/mL"},
      {"measurement": "MIC", "setting": "Pseudomonas aeruginosa; strain AR Bank #0110, read-out: PGG MIC", "value": 64, "unit": "µg/mL"},
      {"measurement": "IC50", "setting": "Pseudomonas aeruginosa; strain AR Bank #0111, read-out: PGG IC50", "value": 4, "unit": "µg/mL"},
      {"measurement": "MIC", "setting": "Pseudomonas aeruginosa; strain AR Bank #0111, read-out: PGG MIC", "value": 64, "unit": "µg/mL"},
      {"measurement": "IC50", "setting": "Pseudomonas aeruginosa; strain PA01, read-out: PGG IC50", "value": 8, "unit": "µg/mL"},
      {"measurement": "MIC", "setting": "Pseudomonas aeruginosa; strain PA01, read-out: PGG MIC", "value": 16, "unit": "µg/mL"},
      {"measurement": "IC50", "setting": "Enterococcus faecium; strain NR-31915, read-out: PGG IC50", "value": 128, "unit": "µg/mL"},
      {"measurement": "MIC", "setting": "Enterococcus faecium; strain NR-31915, read-out: PGG MIC", "value": "> 256", "unit": "µg/mL"},
      {"measurement": "MIC", "setting": "Klebsiella pneumoniae; read-out: PGG MIC", "value": 256, "unit": "µg/mL"},
      {"measurement": "IC50", "setting": "Klebsiella pneumoniae; strain NR-15410, read-out: PGG IC50", "value": 8, "unit": "µg/mL"},
      {"measurement": "MIC", "setting": "Candida species; Candida strains tested, read-out: MICs typical of the strains tested", "value": "< 2", "unit": "µg/mL"},
      {"measurement": "IC50", "setting": "Candida species; two susceptible and 6 drug resistant strains from three Candida species, read-out: IC50 values, range over strains", "value": "0.25 µg/mL to 2 µg/mL and 260 nM to 2.1 µM"},
      {"measurement": "therapeutic index", "setting": "[1]", "value": 32},
      {"measurement": "IC50", "setting": "[2]", "value": 256, "unit": "µg/mL"},
      {"measurement": "growth inhibition compared to PGG isolated from S. terebinthifolia", "setting": "Acinetobacter baumannii; A. baumannii", "value": "identical growth inhibition"},
      {"measurement": "inhibition at which dose-response curves level off", "setting": "Acinetobacter baumannii; A. baumannii, high concentrations", "value": "85-95%"},
      {"measurement": "IC50", "setting": "Acinetobacter baumannii; A. baumannii strains tested in this study, read-out: median IC50 for growth inhibition", "value": 8, "unit": "µg/mL"},
      {"measurement": "MIC", "setting": "Acinetobacter baumannii; A. baumannii, strain not given, read-out: MIC", "value": 64, "unit": "µg/mL"},
      {"measurement": "IC50", "setting": "Acinetobacter baumannii; ATCC17978, strain ATCC17978, read-out: PGG IC50", "value": 8, "unit": "µg/mL"},
      {"measurement": "MIC", "setting": "Acinetobacter baumannii; ATCC17978, strain ATCC17978, read-out: PGG MIC", "value": "> 256", "unit": "µg/mL"},
      {"measurement": "MIC", "setting": "Acinetobacter baumannii; fourteen strains, read-out: MICs of fourteen of the A. baumannii strains tested", "value": "> 256", "unit": "µg/mL"},
      {"measurement": "IC50", "setting": "Acinetobacter baumannii; read-out: IC50s, range over strains, one susceptible and 23 drug resistant strains (19 CRAB)", "value": "8 µg/mL to 64 µg/mL and 8.5 µM to 68 µM"},
      {"measurement": "IC50", "setting": "Acinetobacter baumannii; strain AB5075, read-out: PGG IC50", "value": 16, "unit": "µg/mL"},
      {"measurement": "MIC", "setting": "Acinetobacter baumannii; strain AB5075, read-out: PGG MIC", "value": 256, "unit": "µg/mL"},
      {"measurement": "IC50", "setting": "Acinetobacter baumannii; strain AR Bank #0033, read-out: PGG IC50", "value": 8, "unit": "µg/mL"}
    ]}
  ]
}
